How the values were obtained:
Assay in all cases: combination Emax (second highest fraction inhibited in the dose matrix, 72 h); higher = more inhibition; extreme values may be limits of the assay
NCI-H2795 (Mesothelioma) = test system: NCI-H2795 (Mesothelioma)
Summary of the method: (§1)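 After 24 hours at 37°C and 5% CO2 in 1536-well plates, cells in DMEM/F12 or RPMI plus 10% FBS received two-drug dose matrices for 72 hours. Viability came from CellTiter-Glo 2.0 luminescence and was scaled as inhibition, anchored at 0 by vehicle wells and at 1 by blank wells. Combination Emax is taken as the second-highest inhibition in the matrix, and Bliss excess as the observed combination effect less EA + EB − EA·EB, with EA and EB the single-agent effects.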

[1] = test system: MDA-MB-468 (Breast Carcinoma)
Summary of the method: as §1

[2] = test system: SW1116 (Colorectal Carcinoma)
Summary of the method: as §1

[3] = test system: HDLM-2 (Hodgkin's Lymphoma)
Summary of the method: as §1

[4] = test system: CAL-51 (Breast Carcinoma)
Summary of the method: as §1

[5] = test system: RPMI-6666 (Non-Cancerous)
Summary of the method: as §1

[6] = test system: OVCAR-8 (Ovarian Carcinoma)
Summary of the method: as §1

[7] = test system: SW1271 (Small Cell Lung Carcinoma)
Summary of the method: as §1

[8] = test system: CAL-54 (Kidney Carcinoma)
Summary of the method: as §1

[9] = test system: LoVo (Colorectal Carcinoma)
Summary of the method: as §1

[10] = test system: HCC-15 (Squamous Cell Lung Carcinoma)
Summary of the method: as §1

NB14 (Neuroblastoma) = test system: NB14 (Neuroblastoma)
Summary of the method: as §1

[11] = test system: KYSE-410 (Esophageal Squamous Cell Carcinoma)
Summary of the method: as §1

[12] = test system: RT-112 (Bladder Carcinoma)
Summary of the method: as §1

[13] = test system: OC-314 (Ovarian Carcinoma)
Summary of the method: as §1

[14] = test system: K5 (Thyroid Gland Carcinoma)
Summary of the method: as §1

[15] = test system: NCI-H69 (Small Cell Lung Carcinoma)
Summary of the method: as §1

[16] = test system: HARA (Squamous Cell Lung Carcinoma)
Summary of the method: as §1

[17] = test system: UMC-11 (Other Solid Carcinomas)
Summary of the method: as §1

[18] = test system: HO-1-u-1 (Oral Cavity Carcinoma)
Summary of the method: as §1

Structure (SMILES) | combination Emax (NCI-H2795 (Mesothelioma)) | combination Emax [1] | combination Emax [2] | combination Emax [3] | combination Emax [4] | combination Emax [5] | combination Emax [6] | combination Emax [7] | combination Emax [8] | combination Emax [9] | combination Emax [10] | combination Emax (NB14 (Neuroblastoma)) | combination Emax [11] | combination Emax [12] | combination Emax [13] | combination Emax [14] | combination Emax [15] | combination Emax [16] | combination Emax [17] | combination Emax [18]
NC1(C(=O)N[C@@H](CCO)c2ccc(Cl)cc2)CCN(c2ncnc3[nH]ccc23)CC1 [Capivasertib] + Cn1cnc2c(F)c(Nc3ccc(Br)cc3Cl)c(C(=O)NOCCO)cc21 [Selumetinib] (first compound max 10 µM, 7x7, partner max 10 µM) | 0.871 | 0.741 | 0.453 | 0.205 | 0.596 | 0.737 | 0.303 | 0.674 | 0.611 | 0.717 | 0.693 | 0.313 | 0.532 | 0.475 | 0.604 | 0.864 | 0.466 | 0.607 | 0.279 | 0.878
Cc1cc2ncnn2cc1Nc1ncc2c(n1)n(C1CCOCC1)c(=O)n2C [AZD7648] + C[C@@H]1COCCN1C2=NC(=NC(=C2)C3(CC3)[S@](=N)(=O)C)C4=C5C=CNC5=NC=C4 [AZD6738] (first compound max 10 µM, 7x7, partner max 10 µM) | 0.609 | 0.513 | 0.267 | 0.373 | 0.923 | 0.797 | 0.71 | 0.674 | 0.769 | 0.813 | 0.181 | 0.99 | 0.363 | 0.93 | 0.905 | 0.665 | 0.469 | 0.841 | 0.537 | 0.845
CCc1c2c(nc3ccc(O)cc13)-c1cc3c(c(=O)n1C2)COC(=O)[C@]3(O)CC [SN-38] + CN(C)CCCOc1ccc(-c2ccc3ncc4c(c3c2)n(C2CCOCC2)c(=O)n4C)cn1 [AZD0156] (first compound max 0.3 µM, 7x7, partner max 1 µM) | 0.808 | 0.735 | 0.199 | 0.341 | 0.728 | 0.947 | 0.849 | 0.707 | 0.925 | 0.727 | 0.879 | 0.918 | 0.254 | 0.797 | 1 | 0.512 | 0.738 | 0.768 | 0.303 | 0.676
CCN(CCO)CCCOc1ccc2c(Nc3cc(CC(=O)Nc4cccc(F)c4)[nH]n3)ncnc2c1 [AZD2811] + O=C(c1cc(Cc2n[nH]c(=O)c3ccccc23)ccc1F)N1CCN(C(=O)C2CC2)CC1 [Olaparib] (first compound max 1 µM, 7x7, partner max 10 µM) | 0.395 | 0.413 | 0.223 | 0.258 | 0.314 | 0.625 | 0.367 | 0.17 | 0.223 | 0.354 | 0.755 | 0.889 | 0.165 | 0.424 | 0.487 | 0.329 | 0.572 | 0.318 | 0.75 | 0.274
CC1(C)CCC(CN2CCN(c3ccc(C(=O)NS(=O)(=O)c4ccc(NCC5CCOCC5)c([N+](=O)[O-])c4)c(Oc4cnc5[nH]ccc5c4)c3)CC2)=C(c2ccc(Cl)cc2)C1 [Venetoclax] + C[C@@H](Nc1cc(F)cc(F)c1)c1cc(C(=O)N(C)C)cc2c(=O)cc(N3CCOCC3)oc12 [AZD8186] (first compound max 1 µM, 7x7, partner max 3 µM) | 0.441 | 0.387 | 0.0998 | 0.436 | 0.0234 | 0.988 | 0.139 | 0.151 | 0.533 | 0.494 | 0.173 | 1 | 0.172 | 0.472 | 0.242 | 0.735 | 0.697 | 0.607 | 0.143 | 0.267
CS(=O)(=O)CCNCc1ccc(-c2ccc3ncnc(Nc4ccc(OCc5cccc(F)c5)c(Cl)c4)c3c2)o1 [Lapatinib] + C[C@@H](Oc1cc(-c2cnn(C3CCNCC3)c2)cnc1N)c1c(Cl)ccc(F)c1Cl [Crizotinib] (first compound max 10 µM, 7x7, partner max 10 µM) | 0.949 | 0.959 | 0.688 | 0.552 | 0.691 | 0.843 | 0.79 | 0.529 | 0.916 | 0.708 | 0.945 | 0.979 | 0.934 | 0.941 | 0.881 | 0.984 | 0.845 | 0.95 | 0.703 | 0.961
Cc1cc2ncnn2cc1Nc1ncc2c(n1)n(C1CCOCC1)c(=O)n2C [AZD7648] + CCN(CCO)CCCOc1ccc2c(Nc3cc(CC(=O)Nc4cccc(F)c4)[nH]n3)ncnc2c1 [AZD2811] (first compound max 10 µM, 7x7, partner max 1 µM) | 0.45 | 0.492 | 0.249 | 0.345 | 0.446 | 0.584 | 0.311 | 0.376 | 0.443 | 0.529 | 0.703 | 0.837 | 0.187 | 0.49 | 0.477 | 0.571 | 0.743 | 0.364 | 0.701 | 0.449
Cc1c2c(nn1C)CSCc1cc(n(C)n1)CSc1cc(c3ccccc3c1)OCCCc1c(C(=O)O)n(C)c3c-2c(Cl)ccc13 [AZD5991] + Cc1cc2ncnn2cc1Nc1ncc2c(n1)n(C1CCOCC1)c(=O)n2C [AZD7648] (first compound max 1 µM, 7x7, partner max 10 µM) | 0.941 | 0.462 | 0.168 | 0.996 | 0.365 | 0.541 | 0.225 | 0.305 | 0.367 | 0.573 | 0.207 | 0.72 | 0.229 | 0.854 | 0.297 | 0.351 | 0.283 | 0.394 | 0.625 | 0.418
COc1cccc(OCCCN)c1-c1cc(Nc2cnc(C#N)cn2)n[nH]1 [Prexasertib] + Cc1cc2ncnn2cc1Nc1ncc2c(n1)n(C1CCOCC1)c(=O)n2C [AZD7648] (first compound max 1 µM, 7x7, partner max 10 µM) | 0.765 | 0.533 | 0.463 | 0.583 | 0.916 | 0.959 | 0.984 | 0.678 | 0.821 | 0.879 | 0.333 | 1 | 0.504 | 0.95 | 0.946 | 0.704 | 0.583 | 0.953 | 0.902 | 0.993
CN(CCO)CC[C@H](CSc1ccccc1)Nc1ccc(S(=O)(=O)NC(=O)c2ccc(N3CCC([C@@H](O)c4ccccc4-c4ccc(Cl)cc4)CC3)cc2)cc1S(=O)(=O)C(F)(F)F [AZD4320] + CCN(CCO)CCCOc1ccc2c(Nc3cc(CC(=O)Nc4cccc(F)c4)[nH]n3)ncnc2c1 [AZD2811] (first compound max 1 µM, 7x7, partner max 1 µM) | 0.284 | 0.885 | 0.144 | 0.924 | 0.615 | 0.982 | 0.651 | 0.234 | 0.163 | 0.317 | 0.966 | 1 | 0.17 | 0.913 | 0.804 | 0.33 | 0.896 | 0.63 | 0.93 | 0.824
